According to publication PMC11385396 (Journal of Ginseng Research, 2024):

Assays:
Type in all cases: in vivo, Sprague-Dawley rats
coagulation factor X = assay: Plasma coagulation factor X in rats; settings: 12h after last dose of one week gavage
coagulation factor II = assay: Plasma coagulation factor II in rats; settings: 12h after last dose of one week gavage
Coagulation function = settings: rats, 12h after last dose of one week gavage; compared with the control group

Question: Which “plasma coagulation factor X” value (coagulation factor X) does the source give for `CC(=O)CC(c1ccccc1)c1c(O)c2ccccc2oc1=O` (stereo not shown) [Warfarin] here?
Answer: Its value is “reduce”.

Question: What about the “plasma coagulation factor II” value (coagulation factor II) of the same molecule?
Answer: Its value is “reduce”.

Question: And the APTT (Coagulation function)?
Answer: Its APTT is “significantly increased”.

Question: And the INR (Coagulation function)?
Answer: Its INR is “significantly increased”.
